Assay results from ChEMBL document CHEMBL1201862, “PubChem BioAssay data set” (2004).
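All cell lines were grown in 96-well plates and treated with compound for 48 hours. GI50: concentration for 50% inhibition of growth.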 Activity calls are given as the source filed them. No stated cut-off is given here; in the data, active = GI50 up to about 1.1 µM and inactive = higher.

Tests used:
Experiment in all cases: NCI tumour cell line growth inhibition, 48 h
M19-MEL = tested on: M19-MEL
KM12 = tested on: KM12
NCI-H23 = tested on: NCI-H23
HOP-18 = tested on: HOP-18
OVCAR-3 = tested on: OVCAR-3
SF-268 = tested on: SF-268
HCC 2998 = tested on: HCC 2998
RPMI-8226 = tested on: RPMI-8226
NCI-H226 = tested on: NCI-H226
CCRF-CEM = tested on: CCRF-CEM
HCT-116 = tested on: HCT-116
XF498 = tested on: XF498
HOP-92 = tested on: HOP-92
LOX IMVI = tested on: LOX IMVI
DLD-1 = tested on: DLD-1
SNB-19 = tested on: SNB-19
SK-MEL-2 = tested on: SK-MEL-2
SN12C = tested on: SN12C
HL-60 = tested on: HL-60
HT-29 = tested on: HT-29
U-251 = tested on: U-251
KM-20L2 = tested on: KM-20L2
SK-OV-3 = tested on: SK-OV-3
HCT-15 = tested on: HCT-15
DMS-273 = tested on: DMS-273
OVCAR-8 = tested on: OVCAR-8
SF-295 = tested on: SF-295
Malme-3M = tested on: Malme-3M
M14 = tested on: M14
IGROV-1 = tested on: IGROV-1
NCI-H460 = tested on: NCI-H460
ACHN = tested on: ACHN
SF-539 = tested on: SF-539
UO-31 = tested on: UO-31
DMS-114 = tested on: DMS-114
LXFL 529 = tested on: LXFL 529
TK-10 = tested on: TK-10
UACC-257 = tested on: UACC-257
786-0 = tested on: 786-0
A498 = tested on: A498
NCI-H522 = tested on: NCI-H522
SW-620 = tested on: SW-620
OVCAR-5 = tested on: OVCAR-5
K562 = tested on: K562
MOLT-4 = tested on: MOLT-4
CAKI-1 = tested on: CAKI-1
A549 = tested on: A549
UACC-62 = tested on: UACC-62
EKVX = tested on: EKVX
COLO 205 = tested on: COLO 205
OVCAR-4 = tested on: OVCAR-4
SK-MEL-5 = tested on: SK-MEL-5
SNB-75 = tested on: SNB-75
SNB-78 = tested on: SNB-78
RXF 393 = tested on: RXF 393
HOP-62 = tested on: HOP-62
SK-MEL-28 = tested on: SK-MEL-28
SR = tested on: SR

With `O=C(CCC(=O)Nc1ccc(Cl)c(Cl)c1)CC(=O)c1ccc(Cl)cc1` the GI50 (M19-MEL) was > 100 µM (inactive), the GI50 (KM12) was > 100 µM (inactive) and the GI50 (NCI-H23) was > 100 µM (inactive). For the same molecule, the GI50 (HOP-18) was 80.7 µM (inactive), the GI50 (OVCAR-3) was > 100 µM (inactive) and the GI50 (SF-268) was > 100 µM (inactive). For the same molecule, the GI50 (HCC 2998) was > 100 µM (inactive), the GI50 (RPMI-8226) was > 100 µM (inactive) and the GI50 (NCI-H226) was > 100 µM (inactive). The GI50 (CCRF-CEM) was > 100 µM (inactive), the GI50 (HCT-116) was > 100 µM (inactive) and the GI50 (XF498) was > 100 µM (inactive). The GI50 (HOP-92) was 24.8 µM (inactive), the GI50 (LOX IMVI) was > 100 µM (inactive) and the GI50 (DLD-1) was > 100 µM (inactive). For the same molecule, the GI50 (SNB-19) was > 100 µM (inactive), the GI50 (SK-MEL-2) was > 100 µM (inactive) and the GI50 (SN12C) was > 100 µM (inactive). For the same molecule, the GI50 (HL-60) was > 100 µM (inactive), the GI50 (HT-29) was > 100 µM (inactive) and the GI50 (U-251) was > 100 µM (inactive). For the same molecule, the GI50 (KM-20L2) was > 100 µM (inactive), the GI50 (SK-OV-3) was > 100 µM (inactive) and the GI50 (HCT-15) was over 100 µM. For the same molecule, the GI50 (DMS-273) was > 100 µM (inactive), the GI50 (OVCAR-8) was > 100 µM (inactive) and the GI50 (SF-295) was > 100 µM (inactive). For the same molecule, the GI50 (Malme-3M) was > 100 µM (inactive), the GI50 (M14) was > 100 µM (inactive) and the GI50 (IGROV-1) was > 100 µM (inactive). For the same molecule, the GI50 (NCI-H460) was > 100 µM (inactive), the GI50 (ACHN) was > 100 µM (inactive) and the GI50 (SF-539) was > 100 µM (inactive). The GI50 (UO-31) was > 100 µM (inactive), the GI50 (DMS-114) was > 100 µM (inactive) and the GI50 (LXFL 529) was 83.9 µM (inactive). For the same molecule, the GI50 (TK-10) was > 100 µM (inactive), the GI50 (UACC-257) was > 100 µM (inactive) and the GI50 (786-0) was > 100 µM (inactive). The GI50 (A498) was > 100 µM (inactive), the GI50 (NCI-H522) was > 100 µM (inactive) and the GI50 (SW-620) was > 100 µM (inactive). The GI50 (OVCAR-5) was > 100 µM (inactive), the GI50 (K562) was > 100 µM (inactive) and the GI50 (MOLT-4) was > 100 µM (inactive). For the same molecule, the GI50 (CAKI-1) was > 100 µM (inactive), the GI50 (A549) was > 100 µM (inactive) and the GI50 (UACC-62) was 47.8 µM (inactive). For the same molecule, the GI50 (EKVX) was > 100 µM (inactive), the GI50 (COLO 205) was > 100 µM (inactive) and the GI50 (OVCAR-4) was > 100 µM (inactive).
`Cc1ccc(S(=O)(=O)NC(=O)NC23CC4CC(CC(F)(C4)C2)C3)cc1` was tested, and the GI50 (M19-MEL) was > 100 µM (inactive), the GI50 (KM12) was > 100 µM (inactive) and the GI50 (NCI-H23) was > 100 µM (inactive). For the same molecule, the GI50 (OVCAR-3) was > 100 µM (inactive), the GI50 (HCC 2998) was > 100 µM (inactive) and the GI50 (RPMI-8226) was > 100 µM (inactive). For the same molecule, the GI50 (CCRF-CEM) was > 100 µM (inactive), the GI50 (HCT-116) was > 100 µM (inactive) and the GI50 (SK-MEL-5) was > 100 µM (inactive). The GI50 (XF498) was > 100 µM (inactive), the GI50 (SNB-75) was 73.6 µM (inactive) and the GI50 (HOP-92) was > 100 µM (inactive). For the same molecule, the GI50 (LOX IMVI) was > 100 µM (inactive), the GI50 (DLD-1) was > 100 µM (inactive) and the GI50 (SNB-19) was > 100 µM (inactive). The GI50 (SK-MEL-2) was > 100 µM (inactive), the GI50 (HL-60) was > 100 µM (inactive) and the GI50 (HT-29) was > 100 µM (inactive). The GI50 (U-251) was > 100 µM (inactive), the GI50 (KM-20L2) was > 100 µM (inactive) and the GI50 (SK-OV-3) was > 100 µM (inactive). The GI50 (DMS-273) was > 100 µM (inactive), the GI50 (OVCAR-8) was > 100 µM (inactive) and the GI50 (Malme-3M) was > 100 µM (inactive). For the same molecule, the GI50 (M14) was > 100 µM (inactive), the GI50 (SNB-78) was > 100 µM (inactive) and the GI50 (IGROV-1) was > 100 µM (inactive). For the same molecule, the GI50 (NCI-H460) was > 100 µM (inactive), the GI50 (RXF 393) was > 100 µM (inactive) and the GI50 (ACHN) was > 100 µM (inactive). The GI50 (SF-539) was > 100 µM (inactive), the GI50 (UO-31) was > 100 µM (inactive) and the GI50 (DMS-114) was > 100 µM (inactive). The GI50 (LXFL 529) was > 100 µM (inactive), the GI50 (TK-10) was > 100 µM (inactive) and the GI50 (UACC-257) was > 100 µM (inactive). For the same molecule, the GI50 (786-0) was > 100 µM (inactive), the GI50 (A498) was > 100 µM (inactive) and the GI50 (NCI-H522) was > 100 µM (inactive). For the same molecule, the GI50 (HOP-62) was > 100 µM (inactive), the GI50 (SW-620) was > 100 µM (inactive) and the GI50 (OVCAR-5) was > 100 µM (inactive). For the same molecule, the GI50 (SK-MEL-28) was > 100 µM (inactive), the GI50 (K562) was > 100 µM (inactive) and the GI50 (MOLT-4) was > 100 µM (inactive). The GI50 (A549) was > 100 µM (inactive), the GI50 (UACC-62) was > 100 µM (inactive) and the GI50 (EKVX) was > 100 µM (inactive). For the same molecule, the GI50 (COLO 205) was > 100 µM (inactive).
`CCC1(c2c(F)c(F)c(N)c(F)c2F)CCC(=O)NC1=O` (stereo not given) was tested, and the GI50 (M19-MEL) was > 100 µM (inactive), the GI50 (KM12) was > 100 µM (inactive) and the GI50 (NCI-H23) was > 100 µM (inactive). The GI50 (HOP-18) was > 100 µM (inactive), the GI50 (OVCAR-3) was > 100 µM (inactive) and the GI50 (SF-268) was > 100 µM (inactive). For the same molecule, the GI50 (HCC 2998) was > 100 µM (inactive), the GI50 (RPMI-8226) was > 100 µM (inactive) and the GI50 (NCI-H226) was > 100 µM (inactive). The GI50 (CCRF-CEM) was > 100 µM (inactive), the GI50 (HCT-116) was > 100 µM (inactive) and the GI50 (SK-MEL-5) was > 100 µM (inactive). The GI50 (XF498) was > 100 µM (inactive), the GI50 (SNB-75) was 38.7 µM (inactive) and the GI50 (HOP-92) was > 100 µM (inactive). The GI50 (LOX IMVI) was > 100 µM (inactive), the GI50 (DLD-1) was > 100 µM (inactive) and the GI50 (SNB-19) was > 100 µM (inactive). The GI50 (SK-MEL-2) was > 100 µM (inactive), the GI50 (HL-60) was > 100 µM (inactive) and the GI50 (HT-29) was > 100 µM (inactive). For the same molecule, the GI50 (U-251) was > 100 µM (inactive), the GI50 (SK-OV-3) was > 100 µM (inactive) and the GI50 (HCT-15) was over 100 µM. For the same molecule, the GI50 (DMS-273) was > 100 µM (inactive), the GI50 (OVCAR-8) was > 100 µM (inactive) and the GI50 (SF-295) was > 100 µM (inactive). For the same molecule, the GI50 (Malme-3M) was > 100 µM (inactive), the GI50 (M14) was > 100 µM (inactive) and the GI50 (SNB-78) was > 100 µM (inactive). For the same molecule, the GI50 (IGROV-1) was > 100 µM (inactive), the GI50 (NCI-H460) was > 100 µM (inactive) and the GI50 (ACHN) was > 100 µM (inactive). The GI50 (SF-539) was > 100 µM (inactive), the GI50 (UO-31) was > 100 µM (inactive) and the GI50 (DMS-114) was > 100 µM (inactive). For the same molecule, the GI50 (LXFL 529) was > 100 µM (inactive), the GI50 (TK-10) was > 100 µM (inactive) and the GI50 (UACC-257) was > 100 µM (inactive). For the same molecule, the GI50 (786-0) was > 100 µM (inactive), the GI50 (A498) was > 100 µM (inactive) and the GI50 (SR) was > 100 µM (inactive). The GI50 (NCI-H522) was > 100 µM (inactive), the GI50 (HOP-62) was > 100 µM (inactive) and the GI50 (SW-620) was > 100 µM (inactive). The GI50 (OVCAR-5) was > 100 µM (inactive), the GI50 (SK-MEL-28) was > 100 µM (inactive) and the GI50 (K562) was > 100 µM (inactive). The GI50 (MOLT-4) was > 100 µM (inactive), the GI50 (CAKI-1) was > 100 µM (inactive) and the GI50 (A549) was > 100 µM (inactive). The GI50 (UACC-62) was > 100 µM (inactive), the GI50 (EKVX) was > 100 µM (inactive) and the GI50 (COLO 205) was > 100 µM (inactive). For the same molecule, the GI50 (OVCAR-4) was > 100 µM (inactive).
